{
  "source": "patent US6635235B1",
  "about": "“Bifunctional chelating agent for the design and development of site specific radiopharmaceuticals and biomolecule conjugation strategy” (The Curators of the University of Missouri, priority 1999, dated 2003)",
  "assay": "Stability of -PH2 compounds under storage and reaction conditions",
  "type": "physicochemical",
  "settings": "variety of solvents, wide pH range and temperature range",
  "description": "As a result of working with the NH2(CH2)3 PH2 intermediate, it was recognized that the intermediate was unexpectedly stable under a variety of storage and reaction conditions.\nFurthermore, the reactivity of the —PH2 groups in these compounds toward molecules containing a wide spectrum of functional groups (including carboxylic acids, amines, thiols, and proteins) was remarkably low or non-measurable.",
  "data": [
    {"smiles": "NCCCP", "note": "[NH2(CH2)3 PH2, 3-Aminopropylphosphine]", "values": [
      {"measurement": "stability under storage and reaction conditions", "result": "reasonably stable"}
    ]}
  ]
}
